From PubChem BioAssay (NCI)
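GI50 marks 50% less growth. TGI is the concentration that stops growth completely.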

Columns and labels:
Experiment in all cases: NCI anticancer screen, dose series, 384-well format
[1] = test system: UO-31 renal
[2] = test system: PC-3 prostate
[3] = test system: MOLT-4 leukemia
[4] = test system: SNB-19 CNS
[5] = test system: KM12 colon
[6] = test system: A498 renal
[7] = test system: NCI-H322M lung
[8] = test system: NCI/ADR-RES ovarian
[9] = test system: SF-268 CNS
[10] = test system: HCT-15 colon
[11] = test system: RXF 393 renal
[12] = test system: NCI-H460 NSCLC
[13] = test system: MALME-3M melanoma
[14] = test system: HS 578T breast
[15] = test system: SK-OV-3 ovarian
[16] = test system: DU-145 prostate
[17] = test system: SN12C renal
[18] = test system: LOX IMVI melanoma
[19] = test system: SR leukemia
[20] = test system: MDA-MB-468 breast
[21] = test system: MDA-MB-231 breast
[22] = test system: NCI-H23 lung
[23] = test system: T-47D breast
[24] = test system: EKVX NSCLC
[25] = test system: OVCAR-8 ovarian
[26] = test system: U251 glioblastoma
[27] = test system: SF-539 CNS
[28] = test system: SK-MEL-28 melanoma
[29] = test system: RPMI-8226 leukemia
[30] = test system: SNB-75 CNS
[31] = test system: UACC-257 melanoma
[32] = test system: OVCAR-4 ovarian
[33] = test system: OVCAR-3 ovarian
[34] = test system: SK-MEL-5 melanoma
[35] = test system: HOP-92 NSCLC
[36] = test system: NCI-H522 lung
[37] = test system: A549 NSCLC
[38] = test system: HT29 colon
[39] = test system: CAKI-1 renal
[40] = test system: UACC-62 melanoma
[41] = test system: MDA-MB-435 melanoma
[42] = test system: TK-10 renal
[43] = test system: HCC-2998 colon
[44] = test system: OVCAR-5 ovarian
[45] = test system: SF-295 CNS
[46] = test system: HCT-116 colon
[47] = test system: NCI-H226 lung
[48] = test system: BT-549 breast
[49] = test system: HOP-62 NSCLC
[50] = test system: ACHN renal
[51] = test system: 786-0 renal
[52] = test system: HL-60(TB) leukemia
[53] = test system: COLO 205 colon
[54] = test system: MCF7 breast
[55] = test system: SW-620 colon
[56] = test system: CCRF-CEM leukemia
[57] = test system: IGROV1 ovarian
[58] = test system: M14 melanoma

For CN1CCN(c2ccc(Nc3ncc4cc5n(c4n3)C3(CCCCC3)CNC5=O)nc2)CC1, the GI50 [1] was 1.36 µM, the TGI [1] was over 23.3 µM and the GI50 [2] was 2.71 µM. The TGI [2] was over 39 µM, the GI50 [3] was 0.116 µM and the TGI [3] was 0.931 µM. For the same compound, the GI50 [4] was 3.99 µM, the TGI [4] was over 52.6 µM and the GI50 [5] was 1.34 µM. It also gave a TGI [5] of 14.3 µM, a GI50 [6] of 3.03 µM and a TGI [6] of 14.5 µM. The GI50 [7] was 2.17 µM, the TGI [7] was 7.5 µM and the GI50 [8] was 8.49 µM. It also gave a TGI [8] of 23.8 µM, a GI50 [9] of 1.81 µM and a TGI [9] of 4.14 µM. The GI50 [10] was 2.14 µM, the TGI [10] was 9.25 µM and the GI50 [11] was 2.15 µM. It also gave a TGI [11] of 4.02 µM, a GI50 [12] of 1.33 µM and a TGI [12] of 3.74 µM. The GI50 [13] was 1.45 µM, the TGI [13] was 4.22 µM and the GI50 [14] was 2.09 µM. For the same compound, the TGI [14] was 4.09 µM, the GI50 [15] was 5.23 µM and the TGI [15] was over 42.6 µM. For the same compound, the GI50 [16] was 3.22 µM, the TGI [16] was 9.41 µM and the GI50 [17] was 1.83 µM. The TGI [17] was 7.87 µM, the GI50 [18] was 0.993 µM and the TGI [18] was 3.02 µM. For the same compound, the GI50 [19] was 0.0408 µM, the TGI [19] was 0.196 µM and the GI50 [20] was 4.26 µM. For the same compound, the TGI [20] was 10.8 µM, the GI50 [21] was 0.796 µM and the TGI [21] was 3.23 µM. For the same compound, the GI50 [22] was 1.81 µM, the TGI [22] was 3.83 µM and the GI50 [23] was 7.74 µM. For the same compound, the TGI [23] was 23.3 µM, the GI50 [24] was 3.11 µM and the TGI [24] was 11 µM. For the same compound, the GI50 [25] was 3.57 µM, the TGI [25] was 10.5 µM and the GI50 [26] was 3.14 µM. The TGI [26] was 15.2 µM, the GI50 [27] was 1.75 µM and the TGI [27] was 3.44 µM. It also gave a GI50 [28] of 2.47 µM, a TGI [28] of 14.5 µM and a GI50 [29] of 0.245 µM. It also gave a TGI [29] of 1.5 µM, a GI50 [30] of 1.89 µM and a TGI [30] of 4.35 µM. The GI50 [31] was 5.59 µM, the TGI [31] was 17.4 µM and the GI50 [32] was 5.31 µM. For the same compound, the TGI [32] was 14.6 µM, the GI50 [33] was 3.05 µM and the TGI [33] was 7.81 µM. It also gave a GI50 [34] of 2.39 µM, a TGI [34] of 12.7 µM and a GI50 [35] of 2.28 µM. The TGI [35] was over 24.2 µM, the GI50 [36] was 7.65 µM and the TGI [36] was 18.9 µM. The GI50 [37] was 1.65 µM, the TGI [37] was 9.44 µM and the GI50 [38] was 1.46 µM. It also gave a TGI [38] of 12.1 µM, a GI50 [39] of 1.21 µM and a TGI [39] of over 40.5 µM. For the same compound, the GI50 [40] was 1.69 µM, the TGI [40] was 7.78 µM and the GI50 [41] was 4.34 µM. It also gave a TGI [41] of 24.8 µM, a GI50 [42] of 2.94 µM and a TGI [42] of 15.3 µM. For the same compound, the GI50 [43] was 2.35 µM, the TGI [43] was 5.48 µM and the GI50 [44] was 2.04 µM. For the same compound, the TGI [44] was over 100 µM, the GI50 [45] was 1.75 µM and the TGI [45] was 7.59 µM. For the same compound, the GI50 [46] was 1.41 µM, the TGI [46] was 5.38 µM and the GI50 [47] was 0.362 µM. It also gave a TGI [47] of 4.23 µM, a GI50 [48] of 2 µM and a TGI [48] of 3.9 µM. For the same compound, the GI50 [49] was 1.99 µM, the TGI [49] was 6.75 µM and the GI50 [50] was 1.63 µM. For the same compound, the TGI [50] was over 100 µM, the GI50 [51] was 2.34 µM and the TGI [51] was over 100 µM. For the same compound, the GI50 [52] was 0.139 µM, the TGI [52] was 1.77 µM and the GI50 [53] was 0.844 µM. The TGI [53] was 5.67 µM, the GI50 [54] was 1.39 µM and the TGI [54] was 9.19 µM. For the same compound, the GI50 [55] was 1.09 µM, the TGI [55] was 10.2 µM and the GI50 [56] was 0.399 µM. For the same compound, the TGI [56] was 1.81 µM, the GI50 [57] was 4.12 µM and the TGI [57] was over 100 µM. The GI50 [58] was 1.48 µM and the TGI [58] was 4.85 µM.
